Test results as given in patent publication US20060079566A1, “PDK-1/Akt signaling inhibitors” (priority 2003, published 2006).

What was measured:
CCRF-CEM = assay: NCI DTP screen (SRB), Leukemia; type: cell-based; conditions: Homo sapiens
Method: (§5) After 24 h, two plates of each cell line are fixed in situ with TCA, to represent a measurement of the cell population for each cell line at the time of drug addition (Tz). Experimental drugs are solubilized in dimethyl sulfoxide at 400-fold the desired final maximum test concentration and stored frozen prior to use. […]
(§6) Following drug addition, the plates are incubated for an additional 48 h at 37° C., 5% CO2, 95% air, and 100% relative humidity. […] Bound stain is subsequently solubilized with 10 mM trizma base, and the absorbance is read on an automated plate reader at a wavelength of 515 nm. […] Using the seven absorbance measurements [time zero, (Tz), control growth, (C), and test growth in the presence of drug at the five concentration levels (Ti)], the percentage growth is calculated at each of the drug concentrations levels. Percentage growth inhibition is calculated as: [(Ti−Tz)/(C−Tz)]×100 for concentrations for which Ti>/=Tz [(Ti−Tz)/Tz]×100 for concentrations for which Ti<Tz […]

A549/ATCC = assay: NCI DTP screen (SRB), Non-Small Cell Lung Cancer; type: cell-based; conditions: Homo sapiens
Method: (§1) Screening of compounds 70 and 71 against several cancer cell lines The human tumor cell lines of the cancer screening panel are grown in RPMI 1640 medium containing 5% fetal bovine serum and 2 mM L-glutamine. For a typical screening experiment, cells are inoculated into 96 well microtiter plates in 100 μL at plating densities ranging from 5,000 to 40,000 cells/well depending on the doubling time of individual cell lines. After cell inoculation, the microtiter plates are incubated at 37° C., 5% CO2, 95% air and 100% relative humidity for 24 h prior to addition of experimental drugs.
(§2) After 24 h, two plates of each cell line are fixed in situ with TCA, to represent a measurement of the cell population for each cell line at the time of drug addition (Tz). Experimental drugs are solubilized in dimethyl sulfoxide at 400-fold the desired final maximum test concentration and stored frozen prior to use. At the time of drug addition, an aliquot of frozen concentrate is thawed and diluted to twice the desired final maximum test concentration with complete medium containing 50 μg/ml gentamicin. Additional four, 10-fold or ½ log serial dilutions are made to provide a total of five drug concentrations plus control. Aliquots of 100 μl of these different drug dilutions are added to the appropriate microtiter wells already containing 100 μl of medium, resulting in the required final drug concentrations.
(§3) Following drug addition, the plates are incubated for an additional 48 h at 37° C., 5% CO2, 95% air, and 100% relative humidity. For adherent cells, the assay is terminated by the addition of cold TCA. Cells are fixed in situ by the gentle addition of 50 μl of cold 50% (w/v) TCA (final concentration, 10% TCA) and incubated for 60 minutes at 4° C. The supernatant is discarded, and the plates are washed five times with tap water and air dried. Sulforhodamine B (SRB) solution (100 μl) at 0.4% (w/v) in 1% acetic acid is added to each well, and plates are incubated for 10 minutes at room temperature. After staining, unbound dye is removed by washing five times with 1% acetic acid and the plates are air dried. Bound stain is subsequently solubilized with 10 mM trizma base, and the absorbance is read on an automated plate reader at a wavelength of 515 nm. For suspension cells, the methodology is the same except that the assay is terminated by fixing settled cells at the bottom of the wells by gently adding 50 μl of 80% TCA (final concentration, 16% TCA). Using the seven absorbance measurements [time zero, (Tz), control growth, (C), and test growth in the presence of drug at the five concentration levels (Ti)], the percentage growth is calculated at each of the drug concentrations levels. Percentage growth inhibition is calculated as: [(Ti−Tz)/(C−Tz)]×100 for concentrations for which Ti>/=Tz [(Ti−Tz)/Tz]×100 for concentrations for which Ti<Tz
(§4) Three dose response parameters are calculated for each experimental agent. […] The drug concentration resulting in total growth inhibition (TGI) is calculated from Ti=Tz. […] Values are calculated for each of these three parameters if the level of activity is reached; however, if the effect is not reached or is exceeded, the value for that parameter is expressed as greater or less than the maximum or minimum concentration tested.

EKVX = assay: NCI DTP screen (SRB), Non-Small Cell Lung Cancer; type: cell-based; conditions: Homo sapiens
Method: as §1, §2, §3, §4

HOP-62 = assay: NCI DTP screen (SRB), Non-Small Cell Lung Cancer; type: cell-based; conditions: Homo sapiens
Method: as §1, §2, §3, §4

NCI-H226 = assay: NCI DTP screen (SRB), Non-Small Cell Lung Cancer; type: cell-based; conditions: Homo sapiens
Method: as §1, §2, §3, §4

NCI-H23 = assay: NCI DTP screen (SRB), Non-Small Cell Lung Cancer; type: cell-based; conditions: Homo sapiens
Method: as §1, §2, §3, §4

NCI-H322M = assay: NCI DTP screen (SRB), Non-Small Cell Lung Cancer; type: cell-based; conditions: NCI-H322M
Method: as §1, §2, §3, §4

NCI-H460 = assay: NCI DTP screen (SRB), Non-Small Cell Lung Cancer; type: cell-based
Method: as §1, §2, §3, §4

NCI-H522 = assay: NCI DTP screen (SRB), Non-Small Cell Lung Cancer; type: cell-based, human
Method: Screening of compounds 70 and 71 against several cancer cell lines The human tumor cell lines of the cancer screening panel are grown in RPMI 1640 medium containing 5% fetal bovine serum and 2 mM L-glutamine. For a typical screening experiment, cells are inoculated into 96 well microtiter plates in 100 μL at plating densities ranging from 5,000 to 40,000 cells/well depending on the doubling time of individual cell lines. After cell inoculation, the microtiter plates are incubated at 37° C., 5% CO2, 95% air and 100% relative humidity for 24 h prior to addition of experimental drugs. […]
Following drug addition, the plates are incubated for an additional 48 h at 37° C., 5% CO2, 95% air, and 100% relative humidity. […] Bound stain is subsequently solubilized with 10 mM trizma base, and the absorbance is read on an automated plate reader at a wavelength of 515 nm. […] Using the seven absorbance measurements [time zero, (Tz), control growth, (C), and test growth in the presence of drug at the five concentration levels (Ti)], the percentage growth is calculated at each of the drug concentrations levels. Percentage growth inhibition is calculated as: [(Ti−Tz)/(C−Tz)]×100 for concentrations for which Ti>/=Tz [(Ti−Tz)/Tz]×100 for concentrations for which Ti<Tz
Three dose response parameters are calculated for each experimental agent. […]

COLO 205 = assay: NCI DTP screen (SRB), Colon Cancer; type: cell-based; conditions: Homo sapiens
Method: as §1, §2, §3, §4

HCT-116 = assay: NCI DTP screen (SRB), Colon Cancer; type: cell-based; conditions: Homo sapiens
Method: as §1, §2, §3, §4

KM12 = assay: NCI DTP screen (SRB), Colon Cancer; type: cell-based; conditions: Homo sapiens
Method: as §1, §2, §3, §4

SW-620 = assay: NCI DTP screen (SRB), Colon Cancer; type: cell-based; conditions: Homo sapiens
Method: as §1, §2, §3, §4

HCT-15 = assay: NCI DTP screen (SRB), Colon Cancer; type: cell-based; conditions: Homo sapiens
Method: as §5, §6

MALNE-3M = assay: NCI DTP screen (SRB), Melanoma; type: cell-based
786-0 = assay: NCI DTP screen (SRB), Renal Cancer; type: cell-based; conditions: Homo sapiens
Method: as §1, §2, §3, §4

A498 = assay: NCI DTP screen (SRB), Renal Cancer; type: cell-based; conditions: Homo sapiens
Method: as §1, §2, §3, §4

ACHN = assay: NCI DTP screen (SRB), Renal Cancer; type: cell-based; conditions: Homo sapiens
Method: as §1, §2, §3, §4

CAKI-1 = assay: NCI DTP screen (SRB), Renal Cancer; type: cell-based; conditions: Homo sapiens
Method: as §1, §2, §3, §4

SN12C = assay: NCI DTP screen (SRB), Renal Cancer; type: cell-based; conditions: Homo sapiens
Method: as §1, §2, §3, §4

TK-10 = assay: NCI DTP screen (SRB), Renal Cancer; type: cell-based; conditions: Homo sapiens
Method: as §1, §2, §3, §4

BT-549 = assay: NCI DTP screen (SRB), Breast Cancer; type: cell-based; conditions: Homo sapiens
Method: as §5, §6

[1] = Preliminary animal studies, daily oral administration; conditions: data not shown
[2] = MALNE-3M, Log10 Concentration −5.0

NCC(=O)Nc1ccc(-n2nc(C(F)(F)F)cc2-c2ccc3c(ccc4ccccc43)c2)cc1 [Compound 70, 2-Amino-N-{4-[5-(2-phenanthrenyl)-3-(trifluoromethyl)-1H-pyrazol-1-yl]-phenyl}-acetamide]
GI50 (CCRF-CEM): 387 nM | CC50 (CCRF-CEM; read-out: LC50): > 100000 nM | GI50 (A549/ATCC): 1020 nM | GI50 (EKVX): 1490 nM | GI50 (HOP-62; HOP-62): 1270 nM | CC50 (HOP-62; HOP-62, read-out: LC50): 7130 nM | GI50 (NCI-H226): 1200 nM | GI50 (NCI-H23; NCI-H23): 1300 nM | CC50 (NCI-H23; NCI-H23, read-out: LC50): 6330 nM | CC50 (NCI-H322M; Homo sapiens, read-out: LC50): 5400 nM | Mean Optical Densities (NCI-H322M; Log10 Concentration −5.0): 1.100 | Percent Growth (NCI-H322M; Log10 Concentration −8.0): 60% | GI50 (NCI-H460; Homo sapiens, NCI-H460): 421 nM | CC50 (NCI-H460; Homo sapiens, NCI-H460, read-out: LC50): > 100000 nM | Percent Growth (NCI-H460; NCI-H460, Log10 Concentration −5.0): −66% | Mean Optical Densities (NCI-H460; NCI-H460, Log10 Concentration −6.0): 1.830 | GI50 (NCI-H522; Homo sapiens): 1950 nM | Mean Optical Densities (NCI-H522; Log10 Concentration −4.0): 0.486 | GI50 (COLO 205): 1190 nM | GI50 (HCT-116; HCT-116): 1270 nM | CC50 (HCT-116; HCT-116, read-out: LC50): > 100000 nM | GI50 (KM12; KM12): 1070 nM | CC50 (KM12; KM12, read-out: LC50): 6620 nM | GI50 (SW-620; SW-620): 1120 nM | CC50 (SW-620; SW-620, read-out: LC50): > 100000 nM | GI50 (HCT-15; HCT-15): 365 nM | CC50 (HCT-15; HCT-15, read-out: LC50): > 100000 nM | CC50 (MALNE-3M; Homo sapiens, read-out: LC50): 7730 nM | Mean Optical Densities (MALNE-3M; [2]): 0.218 | Percent Growth (MALNE-3M; [2]): −67% | Percent Growth (MALNE-3M; MALNE-3M, Log10 Concentration −6.0): 87% | GI50 (786-0; 786-0): 1200 nM | CC50 (786-0; 786-0, read-out: LC50): 6790 nM | GI50 (A498; A498): 2300 nM | CC50 (A498; A498, read-out: LC50): 66900 nM | GI50 (ACHN): 1420 nM | GI50 (CAKI-1): 703 nM | GI50 (SN12C): 1580 nM | GI50 (TK-10; TK-10): 1480 nM | CC50 (TK-10; TK-10, read-out: LC50): 6470 nM | GI50 (BT-549; BT-549): 1250 nM | CC50 (BT-549; BT-549, read-out: LC50): 6980 nM | toxicity to the animals ([1]; daily oral administration for one month): little toxicity | oral absorption ([1]; preliminary animal studies): can be orally absorbed
